Patent US20230091810A1, “FIRST-IN-CLASS OF SHMT2 AND MTHFD2 INHIBITORS AS ANTITUMOR AGENTS” (Duquesne University of the Holy Spirit, priority 2017, published 2023)
One block for each compound: values may come before it.

How the values were obtained:
[1] = tested on: human MIA PaCa-2 pancreatic adenocarcinoma xenografts; test: in vivo efficacy trial with MIA PaCa-2 pancreatic cancer xenografts; parameters: species or system SCID mice
Procedure: Female ICR SCID mice (10 weeks old; 19 g average body weight) were implanted bilaterally with human MIA PaCa-2 tumors. […] The mice were weighed and tumors were measured with a caliper two-to-three times weekly; mice were sacrificed when the cumulative tumor burden reached 1500 mg. Tumor weights were estimated from two-dimensional measurements, where tumor mass (in mg) = (a x b^2)/2, and a and b are the tumor length and width in mm, respectively. The tumor masses from both tumors on each mouse were added together, and the total mass per mouse was used for calculations of anti-tumor activity. Quantitative end-points include: (i) tumor growth delay [T-C, where T is the median time in days required for the treatment group tumors to reach a predetermined size (e.g., 1000 mg), and C is the median time in days for the control group tumors to reach the same size; tumor-free survivors are excluded from these calculations]; and (ii) T/C (in percent) when treatment (T) and control (C) groups for the control groups reached 700 mg in size (exponential growth phase). The median value of each group was determined (including zeros). Mouse weights were monitored as a gauge of drug toxicity.
Female ICR SCID mice (10 weeks old; 19 g average body weight) were implanted bilaterally with human MIA PaCa-2 PaC tumors.
In vivo efficacy trial with MIA PaCa-2 pancreatic cancer xenografts. Methods for in vivo maintenance of MIA PaCa-2 tumor xenografts and drug efficacy evaluations are analogous to those previously described (58, 62-67). MIA PaCa-2 human pancreatic cancer cells (5 × 10^6 cells/flank) were bilaterally implanted subcutaneously with tumor fragments (30-60 mg) with a 12-gauge trocar in female […] SCID mice (NCI Animal Production Program). The mice were 10 weeks old on day 0 (tumor implant) with an average body weight of 19 g. For the efficacy trial, the mice were maintained on either a folate-deficient diet from Harlan-Teklad (TD.00434) starting 14 days before subcutaneous tumor implant to ensure serum folate levels would approximate those of humans. A separate cohort of mice was fed a folate-replete control diet from Lab Diet (5021). Mice were supplied with food and water ad libitum. Serum folate concentrations were monitored prior to tumor implant and post study by Lactobacillus casei bioassay (68). The mice in each group (folate-deficient and standard diet) were pooled before unselective distribution to the treatment and control groups. […] The drugs were dissolved in 5% ethanol (v/v), 1% Tween-80 (v/v), and 0.5% NaHCO3 and were administered intravenously (0.2 ml/injection). The mice were weighed and tumors were measured with a caliper two-to-three times weekly; mice were sacrificed when the cumulative tumor burden reached 1500 mg. Tumor weights were estimated from two-dimensional measurements, where tumor mass (in mg) = (a × b^2)/2, and a and b are the tumor length and width in mm, respectively. The tumor masses from both tumors on each mouse were added together, and the total mass per mouse was used for calculations of anti-tumor activity. Quantitative end-points include: (i) tumor growth delay [T-C, where T is the median time in days required for the treatment group tumors to reach a predetermined size (e.g., 1000 mg), and C is the median time in days for the control group tumors to reach the same size; tumor-free survivors are excluded from these calculations]; and (ii) T/C (in percent) when treatment (T) and control (C) groups for the control groups reached 700 mg in size (exponential growth phase). The median value of each group was determined (including zeros). Mouse weights were monitored as a gauge of drug toxicity.

[2] = tested on: H460 cells; test: targeted metabolomics with [2,3,3-2H]serine tracer, H460 cells; format: cell-based, human; conditions: 10 µM drug
Description: Identification of the mitochondrial enzyme target for AGF291, AGF320, and AGF347 by targeted metabolomics. […] The cells were processed for LC-MS analyses of total serine, and of M+3, M+2, M+1, and M+0 (unlabeled) serine (where M+n represents species with n deuterium atoms). The results with the drug-treated cells were compared to those for untreated cells. For WT HCT116 cells, the results were compared to those for SHMT2 KO, MTHFD2 KO, and SHMT1 KO cells (KO of SHMT2, MTHFD2, and SHMT1, respectively (20)). For H460 cells, controls included non-targeted control (NTC) and SHMT2 shRNA knockdown (KD) cells.
Targeted Metabolomics. Targeted metabolomics were performed essentially as previously described (47, 53). Briefly, cells (H460, HCT116, MIA PaCa-2) (1 million cells /dish for vehicle-treated samples, 1.5 million cells/dish for drug-treated samples) were seeded in triplicate 60 mm dishes in 5 ml of folate-free RPMI (contains glycine and unlabeled serine) supplemented with 10% dialyzed fetal bovine serum, 1% penicillin/streptomycin, 2 mM L-glutamine, and 25 nM leucovorin. Cells were allowed to adhere for 24 h. […] After 16 h, the cells were washed with PBS (3×), the media was replaced with folate- and serine-free culture media (containing glycine) supplemented with 10% dialyzed fetal bovine serine, 25 nM leucovorin, and [2,3,3-^2H]serine (250 µM), including 10 µM drug or DMSO vehicle. The cells were incubated for 24 h. All incubations were at 37° C. with 5% CO2. The media was aspirated, and cells were washed (3×) rapidly (< 30 s) with 5 mL ice-cold PBS; metabolism was quickly quenched with methanol:water (80:20) at -80° C. Cells were allowed to rock on dry ice for 10 min to cover the entire dish with 80:20 methanol:water (at -80° C.), then harvested by scraping and pipetting into 1.5 mL Eppendorf tubes. […] The supernatants were collected and analyzed by reversed-phase ion-pairing chromatography coupled with negative-mode electrospray-ionization high-resolution mass spectrometry on a stand-alone Orbitrap (ThermoFisher Exactive). […]

[3] = IV, AGF291 Q6dx3 start d3, total 23.5 mg/kg, Gemcitabine Q4dx4 start d3, total 480 mg/kg

Compound: (2-amino-4-oxo-3,4-dihydro-5H-pyrrolo[3,2-d]pyrimidin-5-yl)butyl)-2-fluorobenzoyl)-L-glutamic acid [AGF347]
- T-C (1000 mg) ([1]; AGF347 Q2dx8 at 15 mg/kg/inj, total dose 120 mg/kg, start day 3): 54 days
- mice disease-free at 122 days ([1]; AGF347 Q2dx8 at 15 mg/kg/inj, total dose 120 mg/kg, 122 days): 1/5
- dTTP isotope distribution from [2,3,3-2H]serine [2]: M+1 dTTP without M+2 dTTP

- weight loss (median nadir) ([1]; nadir on day 17 for AGF291, day 6 for GEM, completely reversible after cessation of therapy): 9%
Compound: Nc1nc2ccn(CCCc3ccc(C(=O)N[C@@H](CCC(=O)O)C(=O)O)cc3)c2c(=O)[nH]1 [AGF291]
- Mean Body Weight Loss (g/mouse) [1, 3]: -1.8 g/mouse
- Percent Body Weight Loss [1, 3]: -8.9%
- median tumor burden on day 14 ([1]; day 14, control cohort 1321 mg): 256 mg
- Median Tumor Burden in mg on d16 (range) ([1]; day 16, IV, AGF291 total 23.5 mg/kg, Gemcitabine total 480 mg/kg): 334 (0-1221) mg
- Tumor Free on d52 ([1]; day 52, mice tumor free/total): 0/5
- Tumor Growth Delay (T-C) ([1]; median T-C to reach 1000 mg, AGF291 total 23.5 mg/kg, Gemcitabine total 480 mg/kg): 10.5 days
- Time to 1000 mg in days (range) ([1]; median, IV, AGF291 total 23.5 mg/kg, Gemcitabine total 480 mg/kg): 23.0 (15.0-51) days
- T/C% ([1]; treated/control median tumor burden, AGF291 7.75 mg/kg/inj Q6dx3, GEM 120 mg/kg/inj every 4 days, start day 3): 19%
- dTTP isotope distribution from [2,3,3-2H]serine [2]: M+1 dTTP without M+2 dTTP

Compound: Nc1nc2ccn(CCCCCc3ccc(C(=O)N[C@@H](CCC(=O)O)C(=O)O)s3)c2c(=O)[nH]1 [AGF320]
- dTTP isotope distribution from [2,3,3-2H]serine [2]: M+1 dTTP without M+2 dTTP
